From publication PMC8708751, “Hit Identification of a Novel Quinazoline Sulfonamide as a Promising EphB3 Inhibitor: Design, Virtual Combinatorial Library, Synthesis, Biological Evaluation, and Docking Simulation Studies” (Pharmaceuticals, 2021)
Like-named read-outs stand apart in the source and are kept apart here.

Key:
Assay type in all cases: biochemical
EGFR kinase = target: T1, EGFR kinase (Homo sapiens, UniProt P00533); assay: EGFR kinase inhibition assay (HotSpot)
T1 construct: purchased Reaction Biology Co. (Kinase HotSpot service)
T1 sequence (P00533 25-1210): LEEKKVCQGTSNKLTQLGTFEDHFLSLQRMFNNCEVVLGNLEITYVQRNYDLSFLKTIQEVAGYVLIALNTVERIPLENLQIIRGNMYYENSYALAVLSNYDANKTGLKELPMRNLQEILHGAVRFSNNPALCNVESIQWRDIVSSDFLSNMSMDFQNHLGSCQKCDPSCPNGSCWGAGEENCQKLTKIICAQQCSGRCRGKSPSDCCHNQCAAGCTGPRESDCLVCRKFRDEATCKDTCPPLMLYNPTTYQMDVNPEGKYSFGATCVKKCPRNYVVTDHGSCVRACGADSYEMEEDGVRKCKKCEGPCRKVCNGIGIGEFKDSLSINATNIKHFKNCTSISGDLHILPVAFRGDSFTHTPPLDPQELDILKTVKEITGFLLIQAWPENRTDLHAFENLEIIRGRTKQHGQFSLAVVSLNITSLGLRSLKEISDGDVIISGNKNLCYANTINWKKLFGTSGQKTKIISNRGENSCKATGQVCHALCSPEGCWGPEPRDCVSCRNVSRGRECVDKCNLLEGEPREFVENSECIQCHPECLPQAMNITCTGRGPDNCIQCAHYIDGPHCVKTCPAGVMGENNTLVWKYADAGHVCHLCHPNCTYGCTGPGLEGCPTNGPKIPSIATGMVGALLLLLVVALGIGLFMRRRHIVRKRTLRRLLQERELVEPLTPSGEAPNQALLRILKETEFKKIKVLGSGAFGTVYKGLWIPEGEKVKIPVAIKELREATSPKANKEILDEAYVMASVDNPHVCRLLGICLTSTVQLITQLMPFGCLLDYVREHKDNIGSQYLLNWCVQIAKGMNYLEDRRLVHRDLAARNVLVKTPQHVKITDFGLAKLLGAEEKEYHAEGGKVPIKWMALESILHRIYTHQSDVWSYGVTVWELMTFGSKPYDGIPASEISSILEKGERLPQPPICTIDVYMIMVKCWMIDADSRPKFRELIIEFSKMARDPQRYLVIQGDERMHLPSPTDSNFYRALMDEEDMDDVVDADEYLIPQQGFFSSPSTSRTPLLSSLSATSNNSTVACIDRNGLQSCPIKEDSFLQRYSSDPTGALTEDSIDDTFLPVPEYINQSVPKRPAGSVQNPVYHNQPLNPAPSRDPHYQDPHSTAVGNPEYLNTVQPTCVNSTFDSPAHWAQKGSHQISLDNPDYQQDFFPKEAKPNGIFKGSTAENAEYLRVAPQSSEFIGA

EphB2 = target: T2, EphB2 (Homo sapiens, UniProt P29323); assay: Kinase panel assay, EphB2
T2 construct: purchased Reaction Biology Co. (Kinase HotSpot service)
T2 sequence (P29323 19-1055): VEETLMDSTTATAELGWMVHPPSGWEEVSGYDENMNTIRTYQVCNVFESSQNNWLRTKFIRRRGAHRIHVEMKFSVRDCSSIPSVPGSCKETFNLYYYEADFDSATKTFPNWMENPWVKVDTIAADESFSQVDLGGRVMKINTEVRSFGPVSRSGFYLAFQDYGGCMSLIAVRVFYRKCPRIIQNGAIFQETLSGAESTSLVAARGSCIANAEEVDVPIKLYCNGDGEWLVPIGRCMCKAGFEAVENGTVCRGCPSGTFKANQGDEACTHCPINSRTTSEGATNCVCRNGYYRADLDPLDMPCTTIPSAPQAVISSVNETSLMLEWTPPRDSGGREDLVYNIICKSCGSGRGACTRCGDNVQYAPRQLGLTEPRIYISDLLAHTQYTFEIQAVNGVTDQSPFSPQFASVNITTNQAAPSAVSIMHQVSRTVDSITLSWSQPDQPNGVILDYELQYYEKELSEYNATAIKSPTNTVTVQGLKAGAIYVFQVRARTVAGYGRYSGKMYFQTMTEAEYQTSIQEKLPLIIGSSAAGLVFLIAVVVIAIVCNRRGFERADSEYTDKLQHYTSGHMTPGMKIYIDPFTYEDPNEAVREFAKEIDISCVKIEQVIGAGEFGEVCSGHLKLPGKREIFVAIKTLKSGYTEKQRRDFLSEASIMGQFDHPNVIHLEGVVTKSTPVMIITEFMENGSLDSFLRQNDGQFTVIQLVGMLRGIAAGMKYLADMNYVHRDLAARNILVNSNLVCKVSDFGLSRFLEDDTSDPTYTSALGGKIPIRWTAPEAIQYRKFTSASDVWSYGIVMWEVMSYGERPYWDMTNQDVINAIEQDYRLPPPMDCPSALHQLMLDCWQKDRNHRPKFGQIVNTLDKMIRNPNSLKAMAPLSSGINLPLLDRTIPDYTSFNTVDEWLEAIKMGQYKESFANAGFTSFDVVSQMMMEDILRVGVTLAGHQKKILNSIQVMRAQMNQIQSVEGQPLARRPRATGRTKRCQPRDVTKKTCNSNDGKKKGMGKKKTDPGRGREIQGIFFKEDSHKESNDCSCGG
Method: […]. A further dose-dependent assay was conducted to validate the selectivity of compound 4c over the EphB isoforms. […]. Accordingly, it could be considered as a promising selective inhibitor for EphB3 isoform.
(§1) The screening of the tested compounds was performed using the Kinase HotSpot^SM service from Reaction Biology Co. (http://www.reactionbiology.com, accessed on 25 September 2021). The HotSpot assay platform contains specific kinase/substrate pairs along with required cofactors. Base reaction buffer: 20 mM Hepes (pH 7.5), 10 mM MgCl2, 1 mM EGTA, 0.02% Brij35, 0.02 mg/mL BSA, 0.1 mM Na3VO4, 2 mM DTT, 1% DMSO. The tested compounds were dissolved in 100% DMSO to specific concentration. The serial dilution was conducted by Integra Viaflo Assist in DMSO (Sigma-Aldrich, Burlington, MA, USA). The reaction mixture containing the examined compound and 33P-ATP was incubated at room temperature for 2 h, and radioactivity was detected by filter-binding method. Kinase activity data were expressed as the percent remaining kinase activity in test samples compared to vehicle (dimethyl sulfoxide) reactions. IC50 values and curve fits were obtained using Prism (GraphPad Software, San Diego, CA, USA).

ERBB2/HER2 = target: T3, ERBB2/HER2 (Homo sapiens, UniProt P04626); assay: Kinase panel assay, ERBB2/HER2; conditions: ERBB2/HER2, 10 µM; read-out: Average % Enzyme Inhibition (Relative to DMSO Controls) at 10 µM
T3 construct: purchased Reaction Biology Co. (Kinase HotSpot service)
T3 sequence (P04626 23-1255): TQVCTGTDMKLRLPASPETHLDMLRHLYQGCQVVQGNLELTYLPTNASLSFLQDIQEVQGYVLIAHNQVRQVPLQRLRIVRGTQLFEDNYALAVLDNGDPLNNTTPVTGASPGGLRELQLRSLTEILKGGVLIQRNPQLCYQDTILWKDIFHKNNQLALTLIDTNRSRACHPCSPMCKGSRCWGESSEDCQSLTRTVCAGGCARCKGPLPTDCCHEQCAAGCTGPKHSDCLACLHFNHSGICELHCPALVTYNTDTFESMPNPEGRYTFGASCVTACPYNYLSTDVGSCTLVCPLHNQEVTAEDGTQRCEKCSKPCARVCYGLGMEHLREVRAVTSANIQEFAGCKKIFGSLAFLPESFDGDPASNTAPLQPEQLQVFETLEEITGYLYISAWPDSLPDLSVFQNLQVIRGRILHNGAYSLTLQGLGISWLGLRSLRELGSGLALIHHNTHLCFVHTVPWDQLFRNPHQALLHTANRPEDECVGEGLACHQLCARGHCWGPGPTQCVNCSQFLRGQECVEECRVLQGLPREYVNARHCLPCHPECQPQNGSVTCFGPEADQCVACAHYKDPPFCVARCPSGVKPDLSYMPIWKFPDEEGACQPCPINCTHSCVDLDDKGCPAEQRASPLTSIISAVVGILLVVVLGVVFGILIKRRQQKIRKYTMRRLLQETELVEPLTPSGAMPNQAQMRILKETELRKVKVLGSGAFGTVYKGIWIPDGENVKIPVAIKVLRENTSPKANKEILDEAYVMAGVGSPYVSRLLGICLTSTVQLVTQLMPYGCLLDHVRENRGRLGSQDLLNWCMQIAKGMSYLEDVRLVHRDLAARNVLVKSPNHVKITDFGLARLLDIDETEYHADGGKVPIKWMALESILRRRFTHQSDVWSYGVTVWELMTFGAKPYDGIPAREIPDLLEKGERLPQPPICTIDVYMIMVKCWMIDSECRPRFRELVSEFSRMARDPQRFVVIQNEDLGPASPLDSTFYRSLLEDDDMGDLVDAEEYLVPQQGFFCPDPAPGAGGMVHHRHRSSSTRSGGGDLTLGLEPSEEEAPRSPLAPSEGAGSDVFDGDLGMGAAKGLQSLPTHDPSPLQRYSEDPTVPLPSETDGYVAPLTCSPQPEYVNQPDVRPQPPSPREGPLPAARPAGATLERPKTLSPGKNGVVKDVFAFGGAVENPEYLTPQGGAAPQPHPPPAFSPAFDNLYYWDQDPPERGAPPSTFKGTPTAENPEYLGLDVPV
Method: as §1

Compound: NS(=O)(=O)c1ccc(Nc2ncnc3ccc(-c4cccc(O)c4)cc23)cc1 [Compound 4c, 4-((6-(3-Hydroxyphenyl)quinazolin-4-yl)amino)benzenesulfonamide]
- inhibition at 10 µM (EGFR kinase; EGFR kinase, 10 µM compound, 10 µM ATP as printed, read-out: Average % Enzyme Inhibition (Relative to DMSO Controls) at 10 µM): 46.8 ± 0.54%
- IC50 (EGFR kinase; EGFR kinase, dose dependent assay, read-out: IC50): 8.04 µM
- IC50 (EGFR kinase; EGFR, read-out: EC50 of the curve fit printed in Figure 6 (IC50 per legend)): 8.04 µM
- inhibition at 10 µM (EphB2; EphB2, 10 µM, read-out: Average % Enzyme Inhibition (Relative to DMSO Controls) at 10 µM): 76.32 ± 0.61%
- IC50 (EphB2; EphB2, dose-dependent assay): 3.95 µM
- inhibition at 10 µM (ERBB2/HER2): 67.8 ± 0.99%
